The text below walks through data of ChEMBL document CHEMBL2311504, “Inhibition of the human deacylase Sirtuin 5 by the indole GW5074” (Bioorg Med Chem Lett, 2013).

Molecules are shown by their SMILES. Calls of active or inactive are those of the source. The calls are words filed in the database; no cut-off is given here.

For assay [1], the target named is T1, NAD-dependent protein deacylase sirtuin-5, mitochondrial (Homo sapiens, UniProt Q9NXA8). Nature of the assay: Inhibition of human Sirt5 deacetylation activity using FKRGVL-acetylLys-EYGVKV as substrate at 100 uM after 60 mins by glutamate dehydrogenase-coupled assay.
Target sequence in this assay (Q9NXA8 37-310 limits assumed): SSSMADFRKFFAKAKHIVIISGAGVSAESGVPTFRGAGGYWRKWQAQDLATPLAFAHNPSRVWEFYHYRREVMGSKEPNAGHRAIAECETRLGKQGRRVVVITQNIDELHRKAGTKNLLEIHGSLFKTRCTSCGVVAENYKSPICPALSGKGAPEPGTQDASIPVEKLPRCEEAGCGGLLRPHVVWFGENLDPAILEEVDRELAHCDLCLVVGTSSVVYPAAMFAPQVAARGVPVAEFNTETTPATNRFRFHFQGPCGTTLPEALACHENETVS
Assay [2] addresses T1, NAD-dependent protein deacylase sirtuin-5, mitochondrial. The assay can be described thus: Inhibition of human Sirt5 desuccinylation activity using SKEYFS-succinylLys-QK as substrate at 100 uM after 60 mins by glutamate dehydrpgenase-coupled assay.
Target sequence in this assay (Q9NXA8 37-310 limits assumed): as above
The target is the same in assay [3]. The assay can be described thus: Selectivity ratio of IC50 for human Sirt5 deacetylation activity to IC50 for human Sirt5 desuccinylation activity.
Target sequence in this assay (Q9NXA8 37-310 limits assumed): as above
For assay [4] the target is unchanged. Nature of the assay: Inhibition of human Sirt5 desuccinylation activity using SKEYFS-succinylLys-QK as substrate measured for 15 mins by MS analysis.
Target sequence in this assay (Q9NXA8 whole entry): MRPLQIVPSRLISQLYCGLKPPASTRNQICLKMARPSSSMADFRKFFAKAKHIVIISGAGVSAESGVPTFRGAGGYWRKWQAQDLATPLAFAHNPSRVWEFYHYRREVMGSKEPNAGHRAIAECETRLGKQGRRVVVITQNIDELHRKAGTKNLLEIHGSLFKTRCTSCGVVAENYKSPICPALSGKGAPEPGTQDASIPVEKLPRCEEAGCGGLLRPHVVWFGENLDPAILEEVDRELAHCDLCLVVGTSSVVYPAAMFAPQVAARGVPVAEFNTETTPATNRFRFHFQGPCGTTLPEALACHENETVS
Assay [5] has the same target. Nature of the assay: Inhibition of human Sirt5 deacetylation activity using FKRGVL-acetylLys-EYGVKV as substrate assessed as activity remaining at 100 µM measured for 20 mins by MS analysis.
Target sequence in this assay (Q9NXA8 37-310 limits assumed): as the sequence (Q9NXA8 37-310 limits assumed) above
Assay [6] has the same target. Nature of the assay: Inhibition of human Sirt5 desuccinylation activity using SKEYFS-succinylLys-QK as substrate assessed as activity remaining at 100 µM measured for 20 mins by MS analysis.
Target sequence in this assay (Q9NXA8 37-310 limits assumed): as above
Assay [7] shares this target. The assay can be described thus: Inhibition of human Sirt5 deacetylation activity using SKEYFS-acetylLys-QK as substrate measured for 15 mins by MS analysis.
Target sequence in this assay (Q9NXA8 whole entry): as the sequence (Q9NXA8 whole entry) above
The target is the same in assay [8]. The assay can be described thus: Inhibition of human Sirt5 deacetylation activity using FKRGVL-acetylLys-EYGVKV as substrate measured for 15 mins by MS analysis.
Target sequence in this assay (Q9NXA8 whole entry): as above

Turning to `CC(C(=O)Nc1cccc(/N=C/c2c(O)ccc3ccccc23)c1)c1ccccc1` (stereo not given), in assay [1], the inhibition entry is “inactive”. This compound also registered an inhibition in assay [2] of 20%.

`O=C1Nc2ccc(I)cc2C1=Cc1cc(Br)c(O)c(Br)c1` [GW305074X]: the Ratio IC50 in assay [3] stood at 4. For the same compound, the half-maximal inhibitory concentration (IC50) was found to be 19.5 µM in assay [4], 200 µM in assay [7] and 97.8 µM in assay [8]. Moreover, the Activity in assay [5] was 30%; in assay [6] it was 15%.

Consider `O=C1Oc2ccc3cc(Br)ccc3c2CC1c1ccccc1` (stereo not given), for which the inhibition entry in assay [1] and in assay [2] was “inactive” each time.

`NC(=O)C1CCCc2c1[nH]c1ccc(Cl)cc21` (stereo not given): the inhibition result in assay [1] and in assay [2] was “inactive” each time.

For the compound `O=C(Nc1ccccc1-c1cn2c(CN3CCNCC3)csc2n1)c1cnc2ccccc2n1`, the inhibition result in assay [1] and in assay [2] was “inactive” each time.

In the case of `N#C/C(=C\c1ccc(-c2cc(Cl)ccc2Cl)o1)C(=O)Nc1cccc2ncccc12`, the inhibition entry in assay [1] and in assay [2] was “inactive” in each case.

For `Cc1ccc(C(=O)Nc2ccc(S(=O)(=O)O)c3cc(S(=O)(=O)O)cc(S(=O)(=O)O)c23)cc1NC(=O)c1cccc(NC(=O)Nc2cccc(C(=O)Nc3cc(C(=O)Nc4ccc(S(=O)(=O)O)c5cc(S(=O)(=O)O)cc(S(=O)(=O)O)c45)ccc3C)c2)c1`, in assay [1], the inhibition result is “Active”. For the same compound, the inhibition in assay [2] was found to be 20%.

As for `CC(NC(=O)c1ccccc1/N=C/c1c(O)ccc2ccccc12)c1ccccc1` (stereo not given), the inhibition entry in assay [1] and in assay [2] was “inactive” in each case.

What is called inhibition is how much of the control response was suppressed. For orientation: IC50 means the concentration at which inhibition is half-maximal. Read a low IC50 as greater potency in that assay.
